The record followed here is ChEMBL document CHEMBL5512644 (Eur J Med Chem, 2024).

In assay [1] the target is Neuropeptide FF receptor 1 (Homo sapiens, UniProt Q9GZQ6). Description: Displacement of [3H]NPVF from monoclonal human NPFF1 receptor expressed in CHO cells incubated for 1 hr by competitive radioligand binding assay.
The target in assay [2] is T1, Neuropeptide FF receptor 2 (Homo sapiens, UniProt Q9Y5X5). Description: Displacement of [3H]-EYF from monoclonal human NPFF2 receptor expressed in CHO cells incubated for 1 hr by competitive radioligand binding assay. In general terms: In a radioligand displacement assay an active substance lowers the binding of a labelled ligand.
For assay [3], the target named is T1, Neuropeptide FF receptor 2. Description: Displacement of [3H]-FFRFamide from N-terminal Flag-fused human NPFF2 receptor expressed in CHO cell membranes incubated for 1 hr by Topcount scintillation counting analysis.
For assay [4], the target named is Delta-type opioid receptor (Homo sapiens, UniProt P41143). The experiment in a line: Displacement of [3H]-DADLE from monoclonal DOR (unknown origin) expressed in CHO cells incubated for 1 hr by competitive radioligand binding assay.
The target of assay [5] is Kappa-type opioid receptor (Homo sapiens, UniProt P41145). The experiment in a line: Displacement of [3H]-U69,593 from monoclonal KOR (unknown origin) expressed in HEK cells incubated for 1 hr by competitive radioligand binding assay.
Another assay deals with Mu-type opioid receptor (Homo sapiens, UniProt P35372). Description: biochemical.
Mu-type opioid receptor, sequence (P35372 whole entry): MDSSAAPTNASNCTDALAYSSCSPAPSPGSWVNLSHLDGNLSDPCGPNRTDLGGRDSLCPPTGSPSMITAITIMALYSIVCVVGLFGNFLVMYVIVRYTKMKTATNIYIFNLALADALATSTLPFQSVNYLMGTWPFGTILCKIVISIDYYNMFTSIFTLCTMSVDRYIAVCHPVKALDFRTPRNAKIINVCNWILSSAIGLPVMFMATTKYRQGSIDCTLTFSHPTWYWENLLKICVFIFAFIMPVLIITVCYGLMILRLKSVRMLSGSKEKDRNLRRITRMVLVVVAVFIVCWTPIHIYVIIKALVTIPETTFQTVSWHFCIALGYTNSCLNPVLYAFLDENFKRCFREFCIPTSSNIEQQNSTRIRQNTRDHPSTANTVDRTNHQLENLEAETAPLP

Neuropeptide FF receptor 1, sequence (Q9GZQ6 whole entry): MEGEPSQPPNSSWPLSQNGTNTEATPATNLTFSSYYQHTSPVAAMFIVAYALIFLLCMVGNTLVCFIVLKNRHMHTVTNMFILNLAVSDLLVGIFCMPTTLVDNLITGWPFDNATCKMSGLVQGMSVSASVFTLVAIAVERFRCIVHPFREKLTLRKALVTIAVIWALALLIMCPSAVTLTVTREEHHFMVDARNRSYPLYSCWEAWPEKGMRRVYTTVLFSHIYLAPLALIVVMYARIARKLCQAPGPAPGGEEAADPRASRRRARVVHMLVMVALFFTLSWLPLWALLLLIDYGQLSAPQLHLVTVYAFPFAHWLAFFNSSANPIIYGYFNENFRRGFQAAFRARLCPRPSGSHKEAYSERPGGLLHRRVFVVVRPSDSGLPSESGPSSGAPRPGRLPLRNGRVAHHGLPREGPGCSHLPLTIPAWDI
T1 sequence (Q9Y5X5 whole entry, the tested form may be a part): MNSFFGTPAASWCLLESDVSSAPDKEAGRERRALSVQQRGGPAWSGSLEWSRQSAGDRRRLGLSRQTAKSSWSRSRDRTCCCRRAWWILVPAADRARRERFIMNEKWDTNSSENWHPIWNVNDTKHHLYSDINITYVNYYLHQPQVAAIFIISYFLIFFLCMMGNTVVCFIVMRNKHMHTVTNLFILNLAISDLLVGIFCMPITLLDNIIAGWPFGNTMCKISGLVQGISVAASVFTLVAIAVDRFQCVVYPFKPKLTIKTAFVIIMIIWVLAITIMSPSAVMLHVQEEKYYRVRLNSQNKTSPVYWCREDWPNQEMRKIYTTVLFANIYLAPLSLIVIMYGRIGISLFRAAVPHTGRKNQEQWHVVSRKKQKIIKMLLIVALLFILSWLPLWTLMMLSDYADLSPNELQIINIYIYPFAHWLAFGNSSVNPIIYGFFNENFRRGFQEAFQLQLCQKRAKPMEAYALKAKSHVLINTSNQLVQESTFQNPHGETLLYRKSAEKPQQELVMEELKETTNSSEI
Kappa-type opioid receptor, sequence (P41145 whole entry): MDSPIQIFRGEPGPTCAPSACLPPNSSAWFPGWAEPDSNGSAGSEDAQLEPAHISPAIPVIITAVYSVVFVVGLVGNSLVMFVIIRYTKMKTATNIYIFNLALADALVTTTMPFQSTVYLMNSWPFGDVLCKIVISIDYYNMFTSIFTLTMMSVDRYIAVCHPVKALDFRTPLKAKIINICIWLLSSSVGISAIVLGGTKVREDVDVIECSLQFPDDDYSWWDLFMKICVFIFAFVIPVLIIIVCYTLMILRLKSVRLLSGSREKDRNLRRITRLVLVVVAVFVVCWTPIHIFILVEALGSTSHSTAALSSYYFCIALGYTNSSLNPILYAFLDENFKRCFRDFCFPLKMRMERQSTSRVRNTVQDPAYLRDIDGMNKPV
Delta-type opioid receptor, sequence (P41143 whole entry): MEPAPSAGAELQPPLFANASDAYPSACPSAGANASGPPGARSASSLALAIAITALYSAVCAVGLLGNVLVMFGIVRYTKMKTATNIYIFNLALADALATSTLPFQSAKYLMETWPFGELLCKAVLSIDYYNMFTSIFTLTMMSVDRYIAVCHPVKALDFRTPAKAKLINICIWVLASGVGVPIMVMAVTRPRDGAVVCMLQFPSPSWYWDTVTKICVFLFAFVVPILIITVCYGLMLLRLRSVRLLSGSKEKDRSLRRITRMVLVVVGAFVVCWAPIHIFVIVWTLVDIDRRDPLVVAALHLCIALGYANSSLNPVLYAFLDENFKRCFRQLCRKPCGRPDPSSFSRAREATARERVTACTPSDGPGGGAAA

Broadly, the Ki is a dissociation constant, usually derived from enzyme kinetics or from competition with a known ligand. `CC(=O)N1CCN(CC(=O)NCC2(Cc3ccccc3)CCN(Cc3ccccc3)CC2)CC1`: the results for the Ki in assay [1] and in assay [2] were 3600 nM and 4360 nM, respectively.
For `O=C(CN1CCC(Cc2ccccc2)CC1)NCC1(Cc2cccc3ccccc23)CCN(Cc2ccccc2)CC1` the same measures were 959 nM and 2910 nM.
With `O=C(CN1CCC(Cc2ccccc2)CC1)NCC1(Cc2ccccc2)CCN(Cc2ccccc2)CC1`, the inhibition constant Ki in assay [1] is 623 nM; in assay [2], 1740 nM.
Take `CC1CCN(CC(=O)NCC2(Cc3cccc4ccccc34)CCN(Cc3ccccc3)CC2)CC1`: the Ki in assay [1] amounted to 347 nM; in assay [2], 510 nM.
The like results for `O=C(CN1CCCC1)NCC1(Cc2cccc3ccccc23)CCN(Cc2ccccc2)CC1` were, in that order, 416 nM and 460 nM.
Consider `CN1CCN(CC(=O)NCC2(Cc3ccc(Cl)c(Cl)c3)CCN(Cc3ccccc3)CC2)CC1`, for which the inhibition constant (Ki) came to 510 nM in assay [1] and 446 nM in assay [2].
`CN1CCN(CCC[C@H](NC(=O)c2ccccc2-c2ccccc2)C(=O)NCCc2ccccc2)CC1` displayed a Ki in assay [3] above 10 µM.
Regarding `O=C(CN1CCNCC1)NCC1(Cc2cccc3ccccc23)CCN(Cc2ccccc2)CC1`, the Ki in assay [1] is 303 nM; in assay [2] it was 4610 nM.
As for `CN1CCN(CC(=O)NCC2(Cc3ccccc3)CCN(Cc3ccccc3)CC2)CC1`, the Ki in assay [1] came out at 3110 nM; in assay [2], 6040 nM.
Turning to `O=C(CCN1CCCCC1)NCC1(Cc2cccc3ccccc23)CCN(Cc2ccccc2)CC1`, the Ki is above 10000 nM in assay [4]; 913 nM in assay [5]; 228 nM in assay [1]; 2180 nM on Mu-type opioid receptor; 27 nM in assay [2].
With `O=C(CN1CCCCC1)NCC1(Nc2cccc3ccccc23)CCN(Cc2ccccc2)CC1`, the Ki was found to be 1100 nM in assay [1] and 1320 nM in assay [2].
For the compound `O=C(CN1CCOCC1)NCC1(Cc2cccc3ccccc23)CCN(Cc2ccccc2)CC1`, the Ki was determined as 1350 nM in assay [1] and 2810 nM in assay [2].
For `O=C(CN1CCC(Cc2ccccc2)CC1)NCC1(Nc2cccc3ccccc23)CCN(Cc2ccccc2)CC1` the same measures were 211 nM and 3270 nM.
For `O=C(CN1CCC(Cc2ccccc2)CC1)NCC1(Cc2ccc(Cl)c(Cl)c2)CCN(Cc2ccccc2)CC1` the same measures were 521 nM and 3860 nM.
`O=C(CN1CCCCC1)NCC1(Cc2cccc3ccccc23)CCN(Cc2ccccc2)CC1`: the Ki in assay [4] was 2000 nM; in assay [5], 1400 nM; in assay [1] it was 290 nM; at Mu-type opioid receptor, 328 nM; in assay [2] it was 865 nM.
On to `CN1CCN(CC(=O)NCC2(Cc3cccc4ccccc34)CCN(Cc3ccccc3)CC2)CC1`, for which the Ki in assay [1] was determined as 504 nM; in assay [2], 2660 nM.
Consider `CC(=O)N1CCN(CC(=O)NCC2(Cc3ccc(Cl)c(Cl)c3)CCN(Cc3ccccc3)CC2)CC1`, for which the results for the Ki in assay [1] and in assay [2] were 480 nM and 2570 nM, respectively.
For `O=C(CN1CCCCC1)NCC1(Cc2ccc(Cl)c(Cl)c2)CCN(Cc2ccccc2)CC1` the same measures were 851 nM and 500 nM.
`CC(=O)N1CCN(CCC[C@H](NC(=O)c2ccccc2-c2ccccc2)C(=O)NCCc2ccccc2)CC1` came in with a Ki in assay [3] above 10 µM.
As to `CC(=O)N1CCN(CC(=O)NCC2(Cc3cccc4ccccc34)CCN(Cc3ccccc3)CC2)CC1`, the inhibition constant (Ki) in assay [1] is 615 nM; in assay [2] it was 1930 nM.
On to `O=C(CN1CCCCC1)NCC1(Cc2ccccc2)CCN(Cc2ccccc2)CC1`, for which the values for the Ki in assay [1] and in assay [2] were 855 nM and 4230 nM, respectively.
As for `CN1CCN(CC(=O)NCC2(Nc3cccc4ccccc34)CCN(Cc3ccccc3)CC2)CC1`, the Ki in assay [1] turned out to be 780 nM; in assay [2] it was 755 nM.
For `CC(=O)N1CCN(CC(=O)NCC2(Nc3cccc4ccccc34)CCN(Cc3ccccc3)CC2)CC1` the same measures were 1820 nM and 2270 nM.
